According to patent publication US9701670B2, “Pyrazolyl-ureas as kinase inhibitors” (RESPIVERT LIMITED, priority 2013, dated 2017):
pIC50: −log10 of the molar value.

What was measured:
[1] = molecular target: p38 MAPKα isoform (MAPK14) (Homo sapiens (Human), UniProt Q16539); experiment: p38 MAPKα enzyme inhibition (FRET, Z-LYTE), Method 1; type: biochemical; settings: Method 1 (Table 4a1)
[2] = tested on: β-catenin in d-U937 cells; experiment: (m) Accumulation of β catenin in d-U937 cells; type: cell-based, human
Experimental: U937 cells, a human monocytic cell line, are differentiated into macrophage-type cells by incubation with PMA; (100 ng/mL) for between 48 to 72 hr. The cells are then incubated with either final concentrations of test compound or vehicle for 18 hr. The induction of β-catenin by the test compounds is stopped by replacing the media with 4% formaldehyde solution. Endogenous peroxide activity is neutralised by incubating with quenching buffer (100 μL, 0.1% sodium azide, 1% H2O2 in PBS with 0.05% Tween-20) for 20 min. The cells are washed with washing buffer (200 μL; PBS containing 0.05% Tween-20) and incubated with blocking solution (200 μL; 5% milk in PBS) for 1 hr, re-washed with washing buffer (200 μL) and then incubated overnight with anti-β-catenin antibody solution (50 μL) in 1% BSA/PBS (BD, Oxford, UK).
After washing with washing buffer (3×200 μL; PBS containing 0.05% Tween-20), cells are incubated with an HRP-conjugated secondary antibody solution (100 μL) in 1% BSA/PBS (Dako, Cambridge, UK) and the resultant signal is determined colourimetrically (OD: 450 nm with a reference wavelength of 655 nm) using TMB substrate (50 μL; R&D Systems, Abingdon, UK). This reaction is stopped by addition of 1N H2SO4 solution (50 μL). Cells are then washed with washing buffer and 2% crystal violet solution (50 μL) is applied for 30 min. After washing with washing buffer (3×200 μL), 1% SDS (100 μL) is added to each well and the plates are shaken lightly for 1 hr prior to measuring the absorbance at 595 nm (Varioskan® Flash, Thermo-Fisher Scientific).
The measured OD450-655 readings are corrected for cell number by dividing the OD450-655 by the OD595 readings. […] A signal less than 0.15 (15%) of that observed for the standard control is designated as “-ve”.

[3] = tested on: Differentiated U937 cells; experiment: (l) Cell viability: MTT assay; type: cell-based, human; settings: 1 μg/mL
Outline: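 Differentiated U937 cells were exposed to compound at 1 or 10 μg/mL either 4 h in 5% FCS RPMI1640 or 24 h in 10% FCS RPMI1640, then given MTT for 1 h, DMSO-solubilised and read at 550 nm. Percent viability loss versus 0.5% DMSO vehicle; apparent gains appear negative.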

mice = experiment: Mouse cigarette smoke model (macrophage and neutrophil accumulation in BALF); type: in vivo; settings: cigarette smoke model, 1.75 μg/mouse (35 μL, bid, i.n.)
Source text: The result of treatment with compound Example (8) on macrophage and neutrophil accumulation in BALF in the mouse cigarette smoke model was investigated (Table 5).

Balb/c mice = experiment: (A) LPS-induced neutrophil accumulation in mice; type: in vivo, mouse; settings: 1.75 μg/mouse
Experimental: […] At T=0, mice are placed into an exposure chamber and exposed to LPS (7.0 mL, 0.5 mg/mL solution in PBS) for 30 min). After a further 8 hr the animals are anesthetized, their tracheas cannulated and BALF extracted by infusing and then withdrawing from their lungs 1.0 mL of PBS via the tracheal catheter. Total and differential white cell counts in the BALF samples are measured using a Neubaur haemocytometer. Cytospin smears of the BALF samples are prepared by centrifugation at 200 rpm for 5 min at RT and stained using a DiffQuik stain system (Dade Behring). Cells are counted using oil immersion microscopy. Data for neutrophil numbers in BAL are shown as mean±S.E.M. (standard error of the mean). The percentage inhibition of neutrophil accumulation is calculated for each treatment relative to vehicle treatment.

Chain of p38 MAPKα isoform (MAPK14) (Q16539 whole entry, canonical isoform): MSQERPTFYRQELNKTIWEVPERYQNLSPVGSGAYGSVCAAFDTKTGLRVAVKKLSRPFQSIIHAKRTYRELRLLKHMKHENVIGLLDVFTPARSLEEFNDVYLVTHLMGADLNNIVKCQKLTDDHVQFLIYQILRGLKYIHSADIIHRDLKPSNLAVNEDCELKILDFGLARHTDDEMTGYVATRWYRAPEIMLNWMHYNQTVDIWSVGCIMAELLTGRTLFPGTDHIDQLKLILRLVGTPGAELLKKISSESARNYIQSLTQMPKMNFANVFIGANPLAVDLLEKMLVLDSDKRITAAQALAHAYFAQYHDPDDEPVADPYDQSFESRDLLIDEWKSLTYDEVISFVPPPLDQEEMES

| Structure (SMILES) | pIC50 [1] | β-catenin inductive effect relative to the effect produced by the Reference Compound at 1 μg/mL ([2]; test concentration of 10 μg/mL, found to be negative) | Cell viability at time point in d-U937 cells 4 h [3] | Cell viability at time point in d-U937 cells 24 h [3] | % β-catenin induction ([2]; 1 μg/mL test compound) [%] | % β-catenin induction ([2]; 5 μg/mL test compound) [%] | inhibition of neutrophil or macrophage accumulation into airways (mice) | inhibition of LPS-induced neutrophil accumulation (Balb/c mice) [%] |
| --- | --- | --- | --- | --- | --- | --- | --- | --- |
| C#Cc1cc(Nc2nccc(Oc3ccc(NC(=O)Nc4cc(C(C)(C)C)nn4-c4ccc(C)cc4)c4ccccc34)n2)cc(C(=O)NC(C)(C)CN2CCOCC2)c1 [Example 82, 3-((4-((4-(3-(3-(tert-Butyl)-1-(p-tolyl)-1H-pyrazol-5-yl)ureido)naphthalen-1-yl)oxy)pyrimidin-2-yl)amino)-5-ethynyl-N-(2-methyl-1-morpholinopropan-2-yl)-benzamide] | – | – | – | – | 0 | 9 | – | – |
| CCC(=O)O[C@]1(C(=O)SCF)[C@H](C)C[C@H]2[C@@H]3C[C@H](F)C4=CC(=O)C=C[C@]4(C)[C@@]3(F)[C@@H](O)C[C@@]21C [fluticasone propionate, reference compound] | – | – | – | – | – | – | did not inhibit | > 80 |
| C#Cc1cc(Nc2nccc(Oc3ccc(NC(=O)Nc4cc(C(C)(C)C#N)nn4-c4ccc(C)cc4)c4ccccc34)n2)cc(C(=O)NCCN2CCOCC2)c1 [Example 78, 3-((4-((4-(3-(3-(2-Cyanopropan-2-yl)-1-(p-tolyl)-1H-pyrazol-5-yl)ureido)-naphthalen-1-yl)oxy)pyrimidin-2-yl)amino)-5-ethynyl-N-(2-morpholinoethyl)benzamide] | – | – | – | – | 9 | 0 | – | – |
| COc1cc(Nc2nccc(Oc3ccc(NC(=O)Nc4cc(C(F)(F)F)nn4-c4ccc(C)cc4)c4ccccc34)n2)cc(C(=O)NCCN2CCOCC2)c1 [Example 48, 3-methoxy-N-(2-morpholinoethyl)-5-((4-((4-(3-(1-(p-tolyl)-3-(trifluoromethyl)-1H-pyrazol-5-yl)ureido)naphthalen-1-yl)oxy)pyrimidin-2-yl)amino)benzamide] | 7.74 | – | −ve (−ve and +ve indicate that the value is below and above respectively, the no significant effect threshold, defined as 30% inhibition at 1 μg/mL at the time point indicated.) | −ve (−ve and +ve indicate that the value is below and above respectively, the no significant effect threshold, defined as 30% inhibition at 1 μg/mL at the time point indicated.) | – | – | – | – |
| COCCNC(=O)c1cc(Nc2nccc(Oc3ccc(NC(=O)Nc4cc(C(C)(C)C)nn4-c4ccc(C)cc4)c4ccccc34)n2)cc(OC)c1 [Example 67, 3-((4-((4-(3-(3-(tert-butyl)-1-(p-tolyl)-1H-pyrazol-5-yl)ureido)naphthalen-1-yl)oxy)pyrimidin-2-yl)amino)-5-methoxy-N-(2-methoxyethyl)benzamide] | 7.62 | – | −ve (−ve and +ve indicate that the value is below and above respectively, the no significant effect threshold, defined as 30% inhibition at 1 μg/mL at the time point indicated.) | −ve (−ve and +ve indicate that the value is below and above respectively, the no significant effect threshold, defined as 30% inhibition at 1 μg/mL at the time point indicated.) | – | – | – | – |
| COc1ccc(-n2nc(C(C)C)cc2NC(=O)Nc2ccc(Oc3ccnc(Nc4cc(OC)cc(C(=O)NCCO)c4)n3)c3ccccc23)cc1 [Example 65, N-(2-hydroxyethyl)-3-((4-((4-(3-(3-isopropyl-1-(4-methoxyphenyl)-1H-pyrazol-5-yl)ureido)naphthalen-1-yl)oxy)pyrimidin-2-yl)amino)-5-methoxybenzamide] | 7.64 | – | −ve (−ve and +ve indicate that the value is below and above respectively, the no significant effect threshold, defined as 30% inhibition at 1 μg/mL at the time point indicated.) | −ve (−ve and +ve indicate that the value is below and above respectively, the no significant effect threshold, defined as 30% inhibition at 1 μg/mL at the time point indicated.) | – | – | – | – |

Further molecules by rising pIC50 [1], results first:

| pIC50 [1] | Structure (SMILES) | β-catenin inductive effect relative to the effect produced by the Reference Compound at 1 μg/mL ([2]; test concentration of 10 μg/mL, found to be negative) | Cell viability at time point in d-U937 cells 4 h [3] | Cell viability at time point in d-U937 cells 24 h [3] | % β-catenin induction ([2]; 1 μg/mL test compound) [%] | % β-catenin induction ([2]; 5 μg/mL test compound) [%] | inhibition of neutrophil or macrophage accumulation into airways (mice) | inhibition of LPS-induced neutrophil accumulation (Balb/c mice) [%] |
| --- | --- | --- | --- | --- | --- | --- | --- | --- |
| 8.00 | C=C(C)c1cc(NC(=O)Nc2ccc(Oc3ccnc(Nc4cc(OC)cc(C(=O)NCCN5CCOCC5)c4)n3)c3ccccc23)n(-c2ccc(OC)cc2)n1 [Example 86, 3-Methoxy-5-((4-((4-(3-(1-(4-methoxyphenyl)-3-(prop-1-en-2-yl)-1H-pyrazol-5-yl)ureido)naphthalen-1-yl)oxy)pyrimidin-2-yl)amino)-N-(2-morpholinoethyl)-benzamide] | less than 15% | −ve (−ve and +ve indicate that the value is below and above respectively, the no significant effect threshold, defined as 30% inhibition at 1 μg/mL at the time point indicated.) | −ve (−ve and +ve indicate that the value is below and above respectively, the no significant effect threshold, defined as 30% inhibition at 1 μg/mL at the time point indicated.) | – | – | – | – |
| 8.10 | COc1ccc(C(=O)NCCN2CCOCC2)cc1Nc1nccc(Oc2ccc(NC(=O)Nc3cc(C(C)(C)C)nn3-c3ccc(C)cc3)c3ccccc23)n1 [Example 31, 3-((4-((4-(3-(3-(tert-butyl)-1-(p-tolyl)-1H-pyrazol-5-yl)ureido)naphthalen-1-yl)oxy)pyrimidin-2-yl)amino)-4-methoxy-N-(2-morpholinoethyl)benzamide] | – | −ve (−ve and +ve indicate that the value is below and above respectively, the no significant effect threshold, defined as 30% inhibition at 1 μg/mL at the time point indicated.) | −ve (−ve and +ve indicate that the value is below and above respectively, the no significant effect threshold, defined as 30% inhibition at 1 μg/mL at the time point indicated.) | – | – | – | – |
| 8.10 | COc1cc(Nc2nccc(Oc3ccc(NC(=O)Nc4cc(C(C)(C)C)nn4-c4ccc(C)cc4)c4ccccc34)n2)cc(C(=O)NCCO)c1 [Example 64, 3-((4-((4-(3-(3-(tert-butyl)-1-(p-tolyl)-1H-pyrazol-5-yl)ureido)naphthalen-1-yl)oxy)pyrimidin-2-yl)amino)-N-(2-hydroxyethyl)-5-methoxybenzamide] | – | −ve (−ve and +ve indicate that the value is below and above respectively, the no significant effect threshold, defined as 30% inhibition at 1 μg/mL at the time point indicated.) | −ve (−ve and +ve indicate that the value is below and above respectively, the no significant effect threshold, defined as 30% inhibition at 1 μg/mL at the time point indicated.) | – | – | – | – |
| 8.15 | Cc1ccc(-n2nc(C(C)(C)C)cc2NC(=O)Nc2ccc(Oc3ccnc(Nc4cccc(C(=O)NCCN5CCOCC5)c4)n3)c3ccccc23)cc1 [Example 3, 3-((4-((4-(3-(3-(tert-Butyl)-1-(p-tolyl)-1H-pyrazol-5-yl)ureido)naphthalen-1-yl)oxy)pyrimidin-2-yl)amino)-N-(2-morpholinoethyl)benzamide] | – | −ve (−ve and +ve indicate that the value is below and above respectively, the no significant effect threshold, defined as 30% inhibition at 1 μg/mL at the time point indicated.) | −ve (−ve and +ve indicate that the value is below and above respectively, the no significant effect threshold, defined as 30% inhibition at 1 μg/mL at the time point indicated.) | – | – | – | – |
| 8.70 | COc1ccc(-n2nc(C3CCOC3)cc2NC(=O)Nc2ccc(Oc3ccnc(Nc4cc(OC)cc(C(=O)NCCN5CCOCC5)c4)n3)c3ccccc23)cc1 (stereo not shown) [Example 59, 3-methoxy-5-((4-((4-(3-(1-(4-methoxyphenyl)-3-(tetrahydrofuran-3-yl)-1H-pyrazol-5-yl)ureido)naphthalen-1-yl)oxy)pyrimidin-2-yl)amino)-N-(2-morpholinoethyl)benzamide] | – | −ve (−ve and +ve indicate that the value is below and above respectively, the no significant effect threshold, defined as 30% inhibition at 1 μg/mL at the time point indicated.) | −ve (−ve and +ve indicate that the value is below and above respectively, the no significant effect threshold, defined as 30% inhibition at 1 μg/mL at the time point indicated.) | – | – | – | – |
